Experimental data taken from patent publication US9416103B2, “Use of the aminoalkylindole JWH-073-M4 and related compounds as neutral CB1 receptor antagonists for the treatment of alcoholism, drug abuse, obesity, and obesity-related diseases” (The Board of Trustees of the University of Arkansas, priority 2012, dated 2016).
“And” between values parts separate entries of the source, which are not always exact repeats. Equal entries are not always repeated. Where two headings read alike, the source gives them in different places. Marks after values point to notes of the source that are not given here.

Key:
CB1Rs [1] = target: T1, CB1Rs (Mus musculus (Mouse), UniProt P47746); assay: [35S]GTPγS binding assay (G-protein activation) in mouse brain homogenates; format: biochemical
Experimental: (§1) Mouse brain homogenates for in vitro assays were prepared as previously described. Briefly, whole brains were harvested from B6SJL mice, snap-frozen in liquid nitrogen and stored at −80° C. On the day membrane homogenates were to be prepared, brains were thawed on ice, then pooled in a 40 mL Dounce glass homogenizer and suspended in 5 volumes of ice cold homogenization buffer (50 mM HEPES, pH 7.4, 3 mM MgCl2, and 1 mM EGTA). Brains were then subjected to 10 complete strokes with an A pestle, followed by centrifugation at 40,000×g for 10 minutes at +4° C. Resulting supernatants were discarded, and the pellet was resuspended, homogenized and centrifuged similarly twice more, with supernatants being discarded. For the final resuspension and homogenization with a B pestle, ice-cold 50 mM HEPES was used in place of homogenization buffer, and homogenates were aliquoted and stored at −80° C. Protein concentrations of homogenates were determined using the BCA™ Protein Assay (Thermo Scientific, Rockford, Ill.).
[^35S]GTPγS binding was performed as previously described. Briefly, 25 μg of mouse brain homogenates were incubated for 30 minutes at 30° C. with 0.1 nM [^35S]GTPγS, 10 μM GDP, and either cannabinoid+/−antagonist, 10 μM unlabeled GTPγS (non-specific binding) or vehicle (total binding), in triplicate, in a volume of 1 mL of buffer containing 20 mM HEPES, 10 mM MgCl2, 100 mM NaCl, 20 units/L adenosine deaminase, 0.05% BSA and the appropriate DMSO (0.1%) and/or ethanol (<0.2%) vehicle. Assay buffer containing 100 mM KCl, instead of 100 mM NaCl, was used to increase basal G-protein activity in experiments examining inverse agonism. Reactions were terminated by quick vacuum filtration through Whatman GF/B glass fiber filters, followed by five washes with ice-cold buffer (20 mM HEPES, 0.05% BSA). Filters were immediately placed into 7 mL scintillation vials to which 4 mL of ScintiVerse™ BD Cocktail scintillation fluid was added. Bound radioactivity was determined after overnight incubation at room temperature and shaking by liquid scintillation spectrophotometry with an efficiency of 93% (Tri Carb 2100 TR Liquid Scintillation Analyzer, Packard Instrument Company, Meriden, Conn.). Specific binding is expressed as picomoles of [^35S]GTPγS bound per mg of protein.
(§2) Curve fitting and statistical analyses for in vitro experiments were performed using GraphPad Prism™ version 5.0b (GraphPad Software Inc., San Diego, Calif.). The Cheng-Prusoff equation [45] was used to convert the experimental IC50 values obtained from competition receptor binding experiments to Ki values, a quantitative measure of receptor affinity. Non-linear regression for one-site competition was used to determine the IC50 for competition receptor binding. Curve fitting of concentration-effect curves via non-linear regression was also employed to determine the EC50 (a measure of potency) and Emax (a measure of efficacy) for [^35S]GTPγS concentration-effects experiments. […] Data are expressed as mean±SEM. The Student's t-test was used to determine statistical significance (P<0.05) between two groups, while a one-way ANOVA, followed by Tukey's Multiple Comparison post-hoc test, was used to determine statistical significance (P<0.05) between three or more groups.

hCB2Rs = hCB2Rs (Homo sapiens (Human), UniProt P34972); assay: Competition receptor binding with [3H]CP-55,940 in CHO-hCB2 cell homogenates
Experimental: (§3) Competition receptor binding was performed as previously described. […] Reactions were terminated by rapid vacuum filtration through Whatman GF/B glass fiber filters, followed by five washes with ice-cold buffer (50 mM Tris, 0.05% BSA). Filters were immediately placed into 7 mL scintillation vials to which 4 mL of ScintiVerse™ BD Cocktail scintillation fluid (Fisher Scientific, Fair Lawn, N.J.) was added. Bound radioactivity was determined after overnight incubation at room temperature and shaking, by liquid scintillation spectrophotometry with an efficiency of 44% (Tri Carb 2100 TR Liquid Scintillation Analyzer, Packard Instrument Company, Meriden, Conn.). Specific binding is expressed as total binding minus non-specific binding, and is graphed for each data point as a percentage of specific binding occurring in the absence of any competitor.
(§4) The prepared analogues were subjected to in vitro pharmacological testing, which included receptor binding and functional assays at both cannabinoid receptors. Initial receptor binding screens at both CB1Rs and CB2Rs were conducted for the analogues prepared.

CB1Rs [2] = target: T1, CB1Rs; assay: Competition receptor binding with [3H]CP-55,940 in mouse brain homogenates
Experimental: as §1, §3, §2, §4

[3] = CHO-hCB2 homogenates (100 μg), read-out: affinity (Ki) at hCB2Rs
[4] = mouse brain homogenates, 0.2 nM [3H]CP-55,940, read-out: [3H]CP binding Ki

CCCCn1cc(C(=O)c2cccc3ccccc23)c2cccc(O)c21 [Compound M4]
effect on basal [35S]GTPγS binding levels when tested alone (CB1Rs [1]; 0.1 nM to 10 μM): neither significantly increased (characteristic of agonists), nor decreased
Kb (CB1Rs [1]; EC90 concentration of CP-55,940 (100 nM), from IC50 by modified Cheng-Prusoff, read-out: Kb, antagonism of CP-55,940-induced [35S]GTPγS binding): 40.3 nM
antagonism of CB1R agonists and inverse agonists on [35S]GTPγS binding (CB1Rs [1]; M4 10 μM co-incubated with CP-55,940, JWH-018, JWH-073, Rimonabant or AM251): significantly antagonized the action of agonists
Kb (CB1Rs [1]; M4 1, 3, 10 μM shifting JWH-018 curve, read-out: Kb, Schild analysis against JWH-018): ~40 nM and 48.1 nM and 48 nM
Schild plot slope (CB1Rs [1]; against JWH-018): 0.97
Ki (hCB2Rs; CHO-hCB2 homogenates (100 μg), listed as JWH-073-M4, read-out: affinity (Ki) at hCB2Rs): ~250 nM
Ki (hCB2Rs; [3]): 251 ± 91.1 nM
Ki (hCB2Rs; Table 3, read-out: hCB2R Ki): 78.3 ± 36.2 nM
Ki (CB1Rs [2]; Table 3, read-out: mCB1R Ki): 24.2 ± 17.2 nM
Ki (CB1Rs [2]; mouse brain homogenates, 0.2 nM [3H]CP-55,940, listed as JWH-073-M4, read-out: [3H]CP binding Ki): ~120 nM
Ki (CB1Rs [2]; [4]): 122 nM

CCCCn1cc(C(=O)c2cccc3ccccc23)c2ccccc21 [JWH-073, (1-butyl-1H-indole-3-yl)-1-naphthalenyl-methanone]
[35S]GTPγS Binding, 1 μM (CB1Rs [1]; 1 μM): 0.27 ± 0.04 pmol/mg
[35S]GTPγS Binding, +O-2050 (1 μM) (CB1Rs [1]; 1 μM cannabinoid (100 nM for CP-55,940) co-incubated with CB1R antagonist O-2050 1 μM): 0.07 ± 0.02 pmol/mg
[35S]GTPγS Binding Emax (CB1Rs [1]; concentration-effect, mouse brain homogenates): 0.27 ± 0.01^a pmole/mg
EC50 (CB1Rs [1]; concentration-effect, mouse brain homogenates, read-out: [35S]GTPγS Binding EC50): 276 ± 65.3 nM
[35S]GTPγS Binding, 10 μM (CB1Rs [1]; receptor-saturating concentration 10 μM): 0.28±0.03 pmole/mg and 0.28 ± 0.03^c pmole/mg
Ki (hCB2Rs; [3]): 9.84 ± 0.92 nM
Ki (hCB2Rs; Table 3, read-out: hCB2R Ki): 9.8 ± 0.9 nM
Ki (CB1Rs [2]; Table 3, read-out: mCB1R Ki): 12.9 ± 3.4 nM
Ki (CB1Rs [2]; [4]): 12.9 ± 3.4 nM
